# Article PMC5218480 (PLoS ONE, 2017)
# Test system: MV-4-11 cells
# Test: Gene expression microarray analysis (Affymetrix PrimeView) and GSEA
# Format: cell-based, human
# Parameters: RFU PODN (11730768_x_at) / Fold change /veh PODN (11730768_x_at) / RFU LINC00158 (11744669_a_at) / Fold change /veh LINC00158 (11744669_a_at) / RFU DUSP10 (11751237_a_at) / Fold change /veh DUSP10 (11751237_a_at) / RFU ID3 (11757404_x_at) / Fold change /veh ID3 (11757404_x_at) / RFU PLEKHG5 (11737974_s_at) / Fold change /veh PLEKHG5 (11737974_s_at) / RFU LRRC4B (11730491_at) / Fold change /veh LRRC4B (11730491_at) / RFU GIMAP4 (11747438_a_at) / Fold change /veh GIMAP4 (11747438_a_at) / RFU KRT8 (11758183_x_at) / Fold change /veh KRT8 (11758183_x_at) / RFU CNN1 (11734310_a_at) / Fold change /veh CNN1 (11734310_a_at) / RFU VPS37D (11726825_at) / Fold change /veh VPS37D (11726825_at) / RFU C10orf10 (11716522_x_at) / Fold change /veh C10orf10 (11716522_x_at) / RFU KIR2DL2 /// KIR2DL4 /// KIR2DL5A /// KIR2DL5B /// KIR2DS1 /// KIR2DS2 /// KIR2DS3 /// KIR2DS4 /// KIR3DL3 /// KIR3DL3 /// KIR3DS1 (11738374_at) / Fold change /veh KIR2DL2 /// KIR2DL4 /// KIR2DL5A /// KIR2DL5B /// KIR2DS1 /// KIR2DS2 /// KIR2DS3 /// KIR2DS4 /// KIR3DL3 /// KIR3DL3 /// KIR3DS1 (11738374_at) / RFU C1QL1 (11718748_at) / Fold change /veh C1QL1 (11718748_at) / RFU TMPRSS4 (11747572_a_at) / Fold change /veh TMPRSS4 (11747572_a_at) / RFU HAMP (11756126_x_at) / Fold change /veh HAMP (11756126_x_at) / RFU RNFT2 (11725882_a_at) / Fold change /veh RNFT2 (11725882_a_at) / RFU NR4A2 (11747474_a_at) / Fold change /veh NR4A2 (11747474_a_at) / RFU ABCC12 (11746883_a_at) / Fold change /veh ABCC12 (11746883_a_at) / RFU TMEM136 (11760407_x_at) / Fold change /veh TMEM136 (11760407_x_at) / RFU CLDN22 /// WWC2 (11732394_at) / Fold change /veh CLDN22 /// WWC2 (11732394_at) / RFU HLA-DPB1 (11760878_x_at) / Fold change /veh HLA-DPB1 (11760878_x_at) / RFU SPINT1 (11716480_a_at) / Fold change /veh SPINT1 (11716480_a_at) / RFU GAP43 (11754022_s_at) / Fold change /veh GAP43 (11754022_s_at) / RFU A4GNT (11735810_at) / Fold change /veh A4GNT (11735810_at) / RFU PRB3 (11715151_x_at) / Fold change /veh PRB3 (11715151_x_at) / RFU TUBB4B (11761932_at) / Fold change /veh TUBB4B (11761932_at) / RFU CAPN14 (11732068_a_at) / Fold change /veh CAPN14 (11732068_a_at) / RFU TMCC2 (11721928_a_at) / Fold change /veh TMCC2 (11721928_a_at) / RFU IRGQ (11745062_a_at) / Fold change /veh IRGQ (11745062_a_at) / RFU FAM174B (11720279_a_at) / Fold change /veh FAM174B (11720279_a_at) / RFU TMPRSS4 (11748680_a_at) / Fold change /veh TMPRSS4 (11748680_a_at) / RFU FAM212B (11763350_a_at) / Fold change /veh FAM212B (11763350_a_at) / RFU PLEKHG5 (11743358_a_at) / Fold change /veh PLEKHG5 (11743358_a_at) / RFU ZSCAN30 (11745921_a_at) / Fold change /veh ZSCAN30 (11745921_a_at) / RFU CMKLR1 (11741424_a_at) / Fold change /veh CMKLR1 (11741424_a_at) / RFU LOC101060620 /// MAPK8IP1 (11723275_at) / Fold change /veh LOC101060620 /// MAPK8IP1 (11723275_at) / RFU SPTSSB (11747773_x_at) / Fold change /veh SPTSSB (11747773_x_at) / RFU PRSS12 (11739890_at) / Fold change /veh PRSS12 (11739890_at) / RFU BIN1 (11741810_x_at) / Fold change /veh BIN1 (11741810_x_at) / RFU WNT11 (11732464_a_at) / Fold change /veh WNT11 (11732464_a_at) / RFU C10orf10 (11716521_a_at) / Fold change /veh C10orf10 (11716521_a_at) / RFU C5orf56 (11738089_at) / Fold change /veh C5orf56 (11738089_at) / RFU CYB561 (11721691_x_at) / Fold change /veh CYB561 (11721691_x_at) / RFU ANKRD19P (11752326_a_at) / Fold change /veh ANKRD19P (11752326_a_at) / RFU OR2T12 /// OR2T33 /// OR2T8 (11738714_s_at) / Fold change /veh OR2T12 /// OR2T33 /// OR2T8 (11738714_s_at) / RFU VCAN (11748164_a_at) / Fold change /veh VCAN (11748164_a_at) / RFU JSRP1 (11732532_at) / Fold change /veh JSRP1 (11732532_at) / RFU KRTAP10-11 (11738290_x_at) / Fold change /veh KRTAP10-11 (11738290_x_at) / RFU MYO3A (11730013_a_at) / Fold change /veh MYO3A (11730013_a_at) / RFU EBF3 (11725865_a_at) / Fold change /veh EBF3 (11725865_a_at) / RFU CAMK2N1 (11719241_x_at) / Fold change /veh CAMK2N1 (11719241_x_at) / RFU C5orf56 (11738088_a_at) / Fold change /veh C5orf56 (11738088_a_at) / RFU OLFML3 (11715873_a_at) / Fold change /veh OLFML3 (11715873_a_at) / RFU LOC100653217 /// NTM (11731650_a_at) / Fold change /veh LOC100653217 /// NTM (11731650_a_at) / RFU MAPK11 (11762145_a_at) / Fold change /veh MAPK11 (11762145_a_at) / RFU FIZ1 (11724087_x_at) / Fold change /veh FIZ1 (11724087_x_at) / RFU OASL (11726364_x_at) / Fold change /veh OASL (11726364_x_at) / RFU SOX15 (11748057_x_at) / Fold change /veh SOX15 (11748057_x_at) / RFU CD79A (11719716_a_at) / Fold change /veh CD79A (11719716_a_at) / RFU HIST1H1D (11736915_at) / Fold change /veh HIST1H1D (11736915_at) / RFU CASKIN2 (11723855_a_at) / Fold change /veh CASKIN2 (11723855_a_at) / RFU LOC730098 (11760151_x_at) / Fold change /veh LOC730098 (11760151_x_at) / RFU OR4N2 (11742367_at) / Fold change /veh OR4N2 (11742367_at) / RFU PRRT2 (11749266_a_at) / Fold change /veh PRRT2 (11749266_a_at) / RFU SNX32 (11753110_a_at) / Fold change /veh SNX32 (11753110_a_at) / RFU CDHR5 (11726645_a_at) / Fold change /veh CDHR5 (11726645_a_at) / RFU RCAN1 (11760418_a_at) / Fold change /veh RCAN1 (11760418_a_at) / RFU FAM167A (11723789_a_at) / Fold change /veh FAM167A (11723789_a_at) / RFU FAM26E (11764081_at) / Fold change /veh FAM26E (11764081_at) / RFU ISYNA1 (11749810_s_at) / Fold change /veh ISYNA1 (11749810_s_at) / RFU ACY1 (11761880_at) / Fold change /veh ACY1 (11761880_at) / RFU 11764098_at / Fold change /veh 11764098_at / RFU SAMD14 (11745864_x_at) / Fold change /veh SAMD14 (11745864_x_at) / RFU NPB (11741838_a_at) / Fold change /veh NPB (11741838_a_at) / RFU TMPRSS6 (11731388_a_at) / Fold change /veh TMPRSS6 (11731388_a_at) / RFU KRTAP10-2 (11738614_at) / Fold change /veh KRTAP10-2 (11738614_at) / RFU ARHGAP8 /// PRR5-ARHGAP8 (11727945_x_at) / Fold change /veh ARHGAP8 /// PRR5-ARHGAP8 (11727945_x_at) / RFU KRTAP5-7 /// NADSYN1 (11734609_at) / Fold change /veh KRTAP5-7 /// NADSYN1 (11734609_at) / RFU RASL12 (11751679_a_at) / Fold change /veh RASL12 (11751679_a_at) / RFU CDKN2B (11736163_a_at) / Fold change /veh CDKN2B (11736163_a_at) / RFU PRF1 (11729649_at) / Fold change /veh PRF1 (11729649_at) / RFU, ZNF638 /// ZNF638-IT1 / Fold change vs veh, ZNF638 /// ZNF638-IT1 / RFU, PANK3 / Fold change vs veh, PANK3 / RFU, SH3YL1 / Fold change vs veh, SH3YL1 / RFU, ZEB2 / Fold change vs veh, ZEB2 / RFU, NRIP1 / Fold change vs veh, NRIP1 / RFU, PTTG1IP / Fold change vs veh, PTTG1IP / RFU, CAPN2 / Fold change vs veh, CAPN2 / RFU, MED14 / Fold change vs veh, MED14 / RFU, SNORA58 / Fold change vs veh, SNORA58 / RFU, C1orf63 / Fold change vs veh, C1orf63 / RFU, LRRFIP1 / Fold change vs veh, LRRFIP1 / RFU, NDUFAF7 / Fold change vs veh, NDUFAF7 / RFU, SLC12A2 / Fold change vs veh, SLC12A2 / RFU, IBTK / Fold change vs veh, IBTK / RFU, ESF1 / Fold change vs veh, ESF1 / Fold change vs veh, TMEM50B / RFU, TAOK1 / Fold change vs veh, TAOK1 / RFU, ACBD3 / Fold change vs veh, ACBD3 / RFU, TMA16 / Fold change vs veh, TMA16 / RFU, RWDD3 / Fold change vs veh, RWDD3 / RFU, BCAT1 / Fold change vs veh, BCAT1 / RFU, EDEM3 / Fold change vs veh, EDEM3 / RFU, TMEM33 / Fold change vs veh, TMEM33 / RFU, WDR75 / Fold change vs veh, WDR75 / RFU, AHCTF1 / Fold change vs veh, AHCTF1 / RFU, TFRC / Fold change vs veh, TFRC / RFU, ZDHHC17 / Fold change vs veh, ZDHHC17 / RFU, NOM1 / Fold change vs veh, NOM1 / RFU, ARL8B / Fold change vs veh, ARL8B / RFU, ZBTB11 / Fold change vs veh, ZBTB11 / RFU, TAMM41 / Fold change vs veh, TAMM41 / RFU, KIAA1704 /// LOC100996395 / Fold change vs veh, KIAA1704 /// LOC100996395 / RFU, ING1 / Fold change vs veh, ING1 / RFU, TRMT61B / Fold change vs veh, TRMT61B / RFU, FUBP3 / Fold change vs veh, FUBP3 / RFU, TP53 / Fold change vs veh, TP53 / RFU, TNKS2 / Fold change vs veh, TNKS2 / RFU, ZFP14 / Fold change vs veh, ZFP14 / RFU, ACTR2 / Fold change vs veh, ACTR2 / RFU, PPP3R1 / Fold change vs veh, PPP3R1 / RFU, PIK3R1 / Fold change vs veh, PIK3R1 / RFU, HNRNPA1 / Fold change vs veh, HNRNPA1 / RFU, RNF170 / Fold change vs veh, RNF170 / RFU, ZNF28 / Fold change vs veh, ZNF28 / RFU, RNGTT / Fold change vs veh, RNGTT / RFU, OGT / Fold change vs veh, OGT / RFU, BRD1 / Fold change vs veh, BRD1 / RFU, MARS / Fold change vs veh, MARS / RFU, ZNF655 / Fold change vs veh, ZNF655 / RFU, FAHD1 / Fold change vs veh, FAHD1 / RFU, BDP1 / Fold change vs veh, BDP1 / RFU, LRRCC1 / Fold change vs veh, LRRCC1 / RFU, ARID1A / Fold change vs veh, ARID1A / RFU, ZNF146 / Fold change vs veh, ZNF146 / RFU, ZNF330 / Fold change vs veh, ZNF330 / RFU, GPN3 / Fold change vs veh, GPN3 / RFU, C9orf123 / Fold change vs veh, C9orf123 / RFU, N4BP2L2 / Fold change vs veh, N4BP2L2 / RFU, ARFIP1 / Fold change vs veh, ARFIP1 / RFU, FAM179B / Fold change vs veh, FAM179B / RFU, BCL10 / Fold change vs veh, BCL10 / RFU, UHRF1BP1L / Fold change vs veh, UHRF1BP1L / RFU, BET1 / Fold change vs veh, BET1 / RFU, CNOT2 / Fold change vs veh, CNOT2 / RFU, ZNF268 / Fold change vs veh, ZNF268 / Fold change vs veh, ZNF507 / RFU, DGCR2 / Fold change vs veh, DGCR2 / RFU, WDSUB1 / Fold change vs veh, WDSUB1 / Fold change vs veh, HSP90B1 /// MIR3652 / RFU, ADSS / Fold change vs veh, ADSS / RFU, GK / Fold change vs veh, GK / RFU, ZNF148 / Fold change vs veh, ZNF148 / RFU, TAF9 / Fold change vs veh, TAF9 / RFU, SLC1A5 / Fold change vs veh, SLC1A5 / RFU, SLMO2 / Fold change vs veh, SLMO2 / RFU, ABCC4 / Fold change vs veh, ABCC4 / RFU, LOC101060439 /// RAP1B / Fold change vs veh, LOC101060439 /// RAP1B / RFU, RFX7 / Fold change vs veh, RFX7 / RFU, GTPBP10 / Fold change vs veh, GTPBP10 / RFU, CNEP1R1 / Fold change vs veh, CNEP1R1 / RFU, BIVM-ERCC5 /// ERCC5 / Fold change vs veh, BIVM-ERCC5 /// ERCC5 / RFU, ILF3 / Fold change vs veh, ILF3 / RFU 11762660_at / Fold change /veh 11762660_at / RFU VCAN (11757783_s_at) / Fold change /veh VCAN (11757783_s_at) / RFU DDX43 (11728927_at) / Fold change /veh DDX43 (11728927_at) / RFU KRT8 (11758188_x_at) / Fold change /veh KRT8 (11758188_x_at) / RFU NKD1 (11759106_at) / Fold change /veh NKD1 (11759106_at) / RFU SRD5A1 (11742802_a_at) / Fold change /veh SRD5A1 (11742802_a_at) / RFU TPSAB1 /// TPSB2 (11721975_s_at) / Fold change /veh TPSAB1 /// TPSB2 (11721975_s_at) / RFU GSTM3 (11746129_a_at) / Fold change /veh GSTM3 (11746129_a_at) / RFU IL23R (11737362_x_at) / Fold change /veh IL23R (11737362_x_at) / RFU TMEM51 (11727254_a_at) / Fold change /veh TMEM51 (11727254_a_at) / RFU PIWIL2 (11732686_x_at) / Fold change /veh PIWIL2 (11732686_x_at) / RFU ORM1 (11744905_x_at) / Fold change /veh ORM1 (11744905_x_at) / RFU CCDC152 (11743942_at) / Fold change /veh CCDC152 (11743942_at) / RFU ECM1 (11717891_a_at) / Fold change /veh ECM1 (11717891_a_at) / RFU IL23R (11748794_a_at) / Fold change /veh IL23R (11748794_a_at) / RFU TNFAIP8L3 (11732012_x_at) / Fold change /veh TNFAIP8L3 (11732012_x_at) / RFU MBOAT4 (11741988_at) / Fold change /veh MBOAT4 (11741988_at) / RFU 11764193_at / Fold change /veh 11764193_at / RFU TMEM53 (11763286_at) / Fold change /veh TMEM53 (11763286_at) / RFU MAGEB2 (11727129_at) / Fold change /veh MAGEB2 (11727129_at) / RFU TMEM200A (11744735_a_at) / Fold change /veh TMEM200A (11744735_a_at) / RFU CCDC152 (11751479_a_at) / Fold change /veh CCDC152 (11751479_a_at) / RFU FAM211A (11726209_a_at) / Fold change /veh FAM211A (11726209_a_at) / RFU RGS16 (11746705_a_at) / Fold change /veh RGS16 (11746705_a_at) / RFU VCAN (11755009_s_at) / Fold change /veh VCAN (11755009_s_at) / RFU RHOB (11743442_s_at) / Fold change /veh RHOB (11743442_s_at) / RFU RGS16 (11720943_a_at) / Fold change /veh RGS16 (11720943_a_at) / RFU RGS16 (11720944_at) / Fold change /veh RGS16 (11720944_at) / RFU, VPS4B / Fold change vs veh, VPS4B / RFU, CREB1 / Fold change vs veh, CREB1 / RFU, DNAJC13 / Fold change vs veh, DNAJC13 / RFU, GNAQ / Fold change vs veh, GNAQ / RFU, CDK5R1 / Fold change vs veh, CDK5R1 / RFU, ZRANB3 / Fold change vs veh, ZRANB3 / RFU, CUL4A / Fold change vs veh, CUL4A / RFU, CCNY / Fold change vs veh, CCNY / RFU, UFL1 / Fold change vs veh, UFL1 / RFU, COG3 / Fold change vs veh, COG3 / RFU, DIAPH2 / Fold change vs veh, DIAPH2 / RFU, SKA2 / Fold change vs veh, SKA2 / RFU, AFF3 / Fold change vs veh, AFF3 / RFU, LMF1 / Fold change vs veh, LMF1 / RFU, IPO11 / Fold change vs veh, IPO11 / RFU, DFFB / Fold change vs veh, DFFB / RFU, FOXP1 / Fold change vs veh, FOXP1 / RFU, CARD8 / Fold change vs veh, CARD8 / RFU, STRN3 / Fold change vs veh, STRN3 / RFU, ADK / Fold change vs veh, ADK / RFU, RASSF2 / Fold change vs veh, RASSF2 / RFU, WIPF1 / Fold change vs veh, WIPF1 / RFU, LARP1B / Fold change vs veh, LARP1B / RFU, RASA1 / Fold change vs veh, RASA1 / RFU, RB1 / Fold change vs veh, RB1 / RFU, PPFIA1 / Fold change vs veh, PPFIA1 / RFU, MAT2A / Fold change vs veh, MAT2A / RFU, CCT5 / Fold change vs veh, CCT5 / RFU, WDR92 / Fold change vs veh, WDR92 / RFU, CUX1 / Fold change vs veh, CUX1 / RFU, TTC7A / Fold change vs veh, TTC7A / RFU, TMEM135 / Fold change vs veh, TMEM135 / RFU, DEPTOR / Fold change vs veh, DEPTOR / RFU, CPM / Fold change vs veh, CPM / RFU, DNAJB6 / Fold change vs veh, DNAJB6 / RFU, CACNA2D3 / Fold change vs veh, CACNA2D3 / RFU, DTX4 / Fold change vs veh, DTX4 / RFU, TFCP2 / Fold change vs veh, TFCP2 / RFU, GMCL1 /// GMCL1P1 / Fold change vs veh, GMCL1 /// GMCL1P1 / RFU, AEBP2 / Fold change vs veh, AEBP2 / RFU, SNHG1 /// SNORD22 /// SNORD25 /// SNORD26 /// SNORD27 /// SNORD28 /// SNORD29 /// SNORD31 / Fold change vs veh, SNHG1 /// SNORD22 /// SNORD25 /// SNORD26 /// SNORD27 /// SNORD28 /// SNORD29 /// SNORD31 / Fold change (Aza/veh), C12orf56 (ProbeSet 11735607_a_at) / Fold change (ACY-1035/veh), C12orf56 (ProbeSet 11735607_a_at) / Fold change (Aza/veh), FGFR1OP (ProbeSet 11751329_s_at) / Fold change (ACY-1035/veh), FGFR1OP (ProbeSet 11751329_s_at) / Fold change (Aza/veh), VPS36 (ProbeSet 11739960_a_at) / Fold change (ACY-1035/veh), VPS36 (ProbeSet 11739960_a_at) / RFU SYPL1 (11715823_x_at) / Fold change /veh SYPL1 (11715823_x_at) / RFU IGFBP7 (11715501_s_at) / Fold change /veh IGFBP7 (11715501_s_at) / RFU REEP3 (11722064_at) / Fold change /veh REEP3 (11722064_at) / RFU IGLL1 (11728026_x_at) / Fold change /veh IGLL1 (11728026_x_at): dose or concentration left out as unconfirmed
# Conditions: ProbeSet 11763166_a_at; LIST B
structure (smiles),measurement,value
Nc1ncn([C@@H]2O[C@H](CO)[C@@H](O)[C@H]2O)c(=O)n1 [azacitidine],"Fold change vs veh, MARS",0.85
